Where “and” joins values, the source holds several entries; their conditions need not be identical. Equal entries are not always repeated. Marks after values point to notes of the source that are not given here.
Columns and labels:
[1] = Acute toxicity (LD), cat; conditions: in vivo
Text: The acute toxicity of the ingredient in the medical composition of the present invention which exerts the anti-fibrotic activity is as shown in the table below: […]

[2] = tested on: fibrosis (interstitial hyperplasia); experiment: Histopathological examination of rat lungs for fibrosis after three months of drug in the diet; assay type: in vivo; conditions: rats; for Lung Connective Tissue Score, Mean: 300 mg/kg (p.o.) in the diet for three months, score 0, 1, 2, 3 = degree of fibrosis, control mean 1.63, 300 mg/kg
Method: The results of a histopathological examination of the lungs of rats for fibrosis (interstitial hyperplasia) after receiving 300mg/kg body weight of pirfenidone in the diet for three months are summarized in Table 2. The individual microscopic readings of the lung are also shown in Table 2, where a score schedule of 0, 1, 2, and 3 reflects the degree of fibrosis.
The data in Table 2 reveal a statistically significant reduction in the amount of fibrosis in rats receiving pirfenidone as compared to placebo control rats (Group 1). The mean score for the controls (Group 1) was 1.63 +/-0.23, and for Group IV (pirfenidone, 300mg/kg body weight daily was 0.95 +/-0.23.
Student's T value was 2.43, with P less than 0.02 (highly significant statistically).

[3] = tested on: PULMONARY INTERSTITIAL HYPERPLASIA (FIBROSIS); experiment: Pulmonary interstitial hyperplasia (fibrosis) in dogs, oral capsules, microscopic scoring; assay type: in vivo, Beagle dogs; conditions: for Hyperplasia Scores 0 (number of dogs): 0 = normal tissue; for Hyperplasia Scores 1 (number of dogs): 1 = minimal; for Hyperplasia Scores 2 (number of dogs): 2 = moderate; for Hyperplasia Scores 3 (number of dogs): 3 = severe; for Incidence of Normal Lung: control 0/9
Method: The mean score for Group I (Control) was 2.11 +/-0.31, and for Group IV, which received pirfenidone, 150 mg/kg per day orally in capsules, was 0.22 +/-0.19.

[4] = tested on: ASBESTOS-INDUCED PULMONARY IN[…]; experiment: Asbestos-induced pulmonary interstitial fibrosis in hamsters; assay type: in vivo
Text: In hamsters, pulmonary fibrosis induced with crysotile asbestos was removed following oral pirfenidone (Table 4).
The novel role of pirfenidone in the therapeutic repair of fibrotic lung tissue featuring removal of fibrotic lesions, and concomitant regeneration of normal lung tissue has been observed in experimental asbestosis by histopathological examination of lung tissue specimens under the light microscope, and electron microscopy (Table 4).
This was subsequently confirmed by ashing of lung specimens in a laboratory oven, and then determining the asbestos content.

[5] = tested on: CYCLOPHOSPHAMIDE-INDUCED IN[…]; experiment: Cyclophosphamide-induced interstitial fibrosis in mice; assay type: in vivo
Text: In mice, pulmonary fibrosis induced with cyclophosphamide […] and is know to produce pulmonary fibrosis in patients as a side effect.

[6] = tested on: Pulmonary fibrosis; experiment: Clinical human open trial, pulmonary fibrosis; assay type: in vivo
Method: (§1) Clinical human open trials have been undertaken as follows: • 1. Pulmonary fibrosis diagnosed as caused by asbestos was treated with pirfenidone and closely and objectively followed in two subjects. […] Pulmonary fibrosis diagnosed as idiopathic in nature was treated with pirfenidone and closely and objectively followed in one subject for over two years. […] Two subjects suffered from frequency, severe nocturia, incontinence, constant urgency, and in the third these symptoms were less severe. Clinically, all had enlarged prostates that explained the symptoms. The results were dramatic in the eldest subject within two weeks of therapy. Nocturia of 6-7 trips (every 60-90 minutes) per night was reduced to 1 or 2 nightly (4-5 hours apart). In the other two patients, nocturia 3-4 times (every 2-3 hours) was reduced to once nightly 4-5 hours after retiring. […] Inhibition of excessive scar formation by direct application of pirfenidone ointment to skin lesions in 10 cases.

[7] = tested on: Benign prostate hypertrophy; experiment: Clinical human open trial, benign prostate hypertrophy; assay type: in vivo
Method: as §1

[8] = tested on: Fibrosis of the ventricular myocardium; experiment: Clinical human open trial, fibrosis of the ventricular myocardium; assay type: in vivo
Method: as §1

[9] = 300 mg/kg (p.o.), three months, 19 animals
[10] = group average, asbestos + 500 mg/kg/day in the diet two months, asbestos only 2.75+/-0.25
[11] = individual hamsters, asbestos + 500 mg/kg/day in the diet two months, 0 = normal tissue, 1 = minimal, 2 = moderate, 3 = severe, 500 mg/kg/day
[12] = GROUP II: cyclophosphamide 200 mg/kg i.p. plus 500 mg/kg/day p.o.

Cc1ccc(=O)n(-c2ccccc2)c1 [pirfenidone, 5-methyl-1-phenyl-2-(1H) pyridone]
LD50 ([1]; iv): 40 mg/kg | LD50 ([1]; po): 500 mg/kg | Lung Connective Tissue Score, Mean [2]: 0.95 +/-0.23 | Lung Connective Tissue Score, Mean ([2]; listed as PIRFENIDONE): 0.95 | Lung Connective Tissue Score 0, Total (animals) [2, 9]: 5 | Lung Connective Tissue Score 1, Total (animals) [2, 9]: 11 | Lung Connective Tissue Score 2, Total (animals) [2, 9]: 2 | Lung Connective Tissue Score 3, Total (animals) [2, 9]: 1 | Hyperplasia Scores 0 (number of dogs) ([3]; 25 mg/kg/day oral): 1 | Hyperplasia Scores 1 (number of dogs) ([3]; 25 mg/kg/day oral): 1 | Hyperplasia Scores 2 (number of dogs) ([3]; 25 mg/kg/day oral): 4 | Hyperplasia Scores 3 (number of dogs) ([3]; 25 mg/kg/day oral): 0 | Incidence of Normal Lung ([3]; 25 mg/kg/day oral): 1/6 | Average Scores ([3]; 25 mg/kg/day oral, hyperplasia score 0-3, control 2.11+/-0.31): 1.50+/-0.34 | Hyperplasia Scores 0 (number of dogs) ([3]; 75 mg/kg/day oral): 2 | Hyperplasia Scores 1 (number of dogs) ([3]; 75 mg/kg/day oral): 2 | Hyperplasia Scores 2 (number of dogs) ([3]; 75 mg/kg/day oral): 3 | Hyperplasia Scores 3 (number of dogs) ([3]; 75 mg/kg/day oral): 1 | Incidence of Normal Lung ([3]; 75 mg/kg/day oral): 2/8 | Average Scores ([3]; 75 mg/kg/day oral, hyperplasia score 0-3, control 2.11+/-0.31): 1.38+/-0.38 | Hyperplasia Scores 0 (number of dogs) ([3]; 150 mg/kg/day oral): 7 | Hyperplasia Scores 1 (number of dogs) ([3]; 150 mg/kg/day oral): 2 | Hyperplasia Scores 2 (number of dogs) ([3]; 150 mg/kg/day oral): 0 | Hyperplasia Scores 3 (number of dogs) ([3]; 150 mg/kg/day oral): 0 | Incidence of Normal Lung ([3]; 150 mg/kg/day oral): 7/9 | Average Scores ([3]; 150 mg/kg/day orally in capsules, hyperplasia score 0-3, control 2.11+/-0.31, P<0.001, 150 mg/kg/day): 0.22 +/-0.19 | Average Scores ([3]; 150 mg/kg/day orally in capsules, hyperplasia score 0-3, control 2.11+/-0.31, P<0.001, listed as Pirfenidone, 150 mg/kg/day): 0.22+/-0.15** | recurrence of asbestos-induced fibrosis ([4]; after drug had been discontinued for two months): did not recur | lung cell-imbedded asbestos fibers ([4]; electron microscope, confirmed by ashing of lung specimens and asbestos content): had been removed | Lung Density, Average ([4]; group average, asbestos + 500 mg/kg/day in the diet two months, asbestos only 2.53+/-0.23): 1.17+/-0.10 | Pulmonary Fibrosis Score Electron Microscope, Average [4, 10]: 0.25+/-0.25 | Pulmonary Fibrosis Score Light Microscope, Average [4, 10]: 1.00+/-0.41 | pulmonary fibrosis induced with crysotile asbestos ([4]; hamsters, oral): removed | Pulmonary Fibrosis Score Electron Microscope [4, 11]: 0 (3×) and 1 | Pulmonary Fibrosis Score Light Microscope [4, 11]: 0 and 2 and 1 (2×) | Lung Density ([4]; individual hamsters, asbestos by inhalation 5 days, 500 mg/kg/day orally in the diet for two months, beginning two months after exposure, 500 mg/kg/day): 0.98 and 1.04 and 1.26 and 1.41 | Lung Dry Wt. [5, 12]: 52.4+/-0.9 Mg. | Lung FIBROSIS Scores (N/N), incidence of scores 3.0 or less [5, 12]: 3/5 | Lung FIBROSIS Scores ([5]; GROUP II: cyclophosphamide 200 mg/kg i.p. plus 500 mg/kg/day p.o., scoring 0 through 6): 2.99+/-0.75 | pulmonary fibrosis induced with cyclophosphamide ([5]; mice, oral administration): removed | Clinical impressions ([6]; pulmonary fibrosis diagnosed as caused by asbestos, two subjects): dramatic and highly favorable | Clinical impressions ([6]; pulmonary fibrosis diagnosed as idiopathic, one subject followed for over two years): highly favorable | digital examination of the prostate ([7]; all cases, in 3-4 weeks): detectable reduction in the size of the prostate | Nocturia after therapy ([7]; other two patients, before 3-4 times (every 2-3 hours)): once | clinical results ([7]; three elderly subjects (66-100 years)): very good to excellent | fibrosis of the ventricular myocardium (electrocardiogram maps and nuclear resonance determinations) ([8]; one subject (diagnosed as terminal), after repeated coronary infarcts): objective evidence of the reduction of the fibrosis | survival of the subject ([8]; one subject diagnosed as terminal, drug terminated after 18 months): additional three years

— EP0702551B1, “COMPOSITIONS AND METHODS FOR REPARATION AND PREVENTION OF FIBROTIC LESIONS” (MARGOLIN, Solomon B., priority 1993, dated 1994)
